Legend:
human FPR1 = biological target: T1, human FPR1 (Homo sapiens, UniProt P21462); experiment: FPR1 cyclic adenosine monophosphate (cAMP) assay; assay type: cell-based; settings: CHO cells overexpressing human FPR1; forskolin 10 μM; inhibition of cAMP production; HTRF; read-out: hFPR1 cAMP2 EC50
T1 sequence (P21462 1-350): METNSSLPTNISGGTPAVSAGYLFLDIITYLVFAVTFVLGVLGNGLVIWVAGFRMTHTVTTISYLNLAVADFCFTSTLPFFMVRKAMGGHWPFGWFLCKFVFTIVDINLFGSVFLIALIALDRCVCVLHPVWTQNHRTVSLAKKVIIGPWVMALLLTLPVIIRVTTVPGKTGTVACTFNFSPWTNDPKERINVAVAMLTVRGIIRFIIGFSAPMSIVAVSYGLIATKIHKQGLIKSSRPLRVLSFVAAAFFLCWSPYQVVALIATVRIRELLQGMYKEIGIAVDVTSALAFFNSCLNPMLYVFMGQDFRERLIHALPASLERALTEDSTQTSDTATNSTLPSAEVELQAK
In short: (§1)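 CHO cells overexpressing human FPR1 (4,000/well) or FPR2 (2,000/well) were incubated 30 min at room temperature with compound (0.020 nM to 100 μM, 1% DMSO), IBMX 200 μM, and forskolin at 10 μM (FPR1) or 5 μM (FPR2), all final. HTRF cAMP read-out; inhibition fitted by 4-parameter logistic equation.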

human FPR2 = biological target: T2, human FPR2 (Homo sapiens, UniProt P25090); experiment: FPR2 cyclic adenosine monophosphate (cAMP) assay; assay type: cell-based; settings: CHO cells overexpressing human FPR2; forskolin 5 μM; inhibition of cAMP production; HTRF; read-out: hFPR2 cAMP2 EC50
T2 sequence (P25090 1-351): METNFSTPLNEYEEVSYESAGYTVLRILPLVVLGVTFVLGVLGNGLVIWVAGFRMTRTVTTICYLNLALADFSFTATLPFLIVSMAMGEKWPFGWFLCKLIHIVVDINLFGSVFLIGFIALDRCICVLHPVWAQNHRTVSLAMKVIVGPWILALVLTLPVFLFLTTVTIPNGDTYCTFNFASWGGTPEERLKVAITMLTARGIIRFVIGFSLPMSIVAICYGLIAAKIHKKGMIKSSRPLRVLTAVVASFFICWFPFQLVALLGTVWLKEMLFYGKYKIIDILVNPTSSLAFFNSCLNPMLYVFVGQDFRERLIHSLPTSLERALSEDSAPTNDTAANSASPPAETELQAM
In short: as §1

SMILES | EC50 (human FPR1) [nM] | EC50 (human FPR2) [nM]
COc1cc(F)c(-c2c(NC(=O)c3ccc(OC(F)F)cc3)c(=O)n(-c3cc(C#N)cc(C(F)(F)F)n3)n2C)c(F)c1 [Example 341, N-(2-(4-Cyano-6-(trifluoromethyl)pyridin-2-yl)-5-(2,6-difluoro-4-methoxyphenyl)-1-methyl-3-oxo-2,3-dihydro-1H-pyrazol-4-yl)-4-(difluoromethoxy)benzamide] | 2600 | 10
COc1cc(F)c(-c2c(NC(=O)c3ccc(OC(F)F)cc3)c(=O)n(-c3nc(N4CCN(C)CC4)ccc3C(F)(F)F)n2C)c(F)c1 [Example 135, N-[5-(2,6-difluoro-4-methoxyphenyl)-1-methyl-2-[6-(4-methylpiperazin-1-yl)-3-(trifluoromethyl)pyridin-2-yl]-3-oxo-2,3-dihydro-1H-pyrazol-4-yl]-4-(difluoromethoxy)benzamide] | 2400 | 3
COc1cc(F)c(-c2c(NC(=O)c3ccc(OC(F)F)cc3)c(=O)n(-c3cc(C)cc(Cl)c3)n2C)c(F)c1 [Example 134, N-[2-(3-chloro-5-methylphenyl)-5-(2,6-difluoro-4-methoxyphenyl)-1-methyl-3-oxo-2,3-dihydro-1H-pyrazol-4-yl]-4-(difluoromethoxy)benzamide] | > 10000 | 10
COc1cc(C2CCN(S(C)(=O)=O)CC2)nc(-n2c(=O)c(NC(=O)c3ccc(OC(F)F)cc3)c(-c3c(F)cc(OC)cc3F)n2C)c1 [Example 366, N-(5-(2,6-Difluoro-4-methoxyphenyl)-2-(4-methoxy-6-(1-(methylsulfonyl)piperidin-4-yl)pyridin-2-yl)-1-methyl-3-oxo-2,3-dihydro-1H-pyrazol-4-yl)-4-(difluoromethoxy)benzamide] | > 10000 | 7
CCc1ccc(OCC(C)(C)O)nc1-n1c(=O)c(NC(=O)c2ccc(OC(F)F)cc2)c(-c2c(F)cc(OC)cc2F)n1C [Example 309, N-[5-(2,6-difluoro-4-methoxyphenyl)-2-[3-ethyl-6-(2-hydroxy-2-methylpropoxy)pyridin-2-yl]-1-methyl-3-oxo-2,3-dihydro-1H-pyrazol-4-yl]-4-(difluoromethoxy)benzamide] | 2200 | 10
COc1cc(F)c(-c2c(NC(=O)c3ccc(OC(F)(F)F)cc3)c(=O)n(-c3cccc(C4CC4)n3)n2C)c(F)c1 [Example 167, N-[2-(6-cyclopropylpyridin-2-yl)-5-(2,6-difluoro-4-methoxyphenyl)-1-methyl-3-oxo-2,3-dihydro-1H-pyrazol-4-yl]-4-(trifluoromethoxy)benzamide] | 460 | 4
COc1cc(N2C[C@H]3C[C@@H]2CN3C)nc(-n2c(=O)c(NC(=O)c3ccc(OC(F)F)cc3)c(-c3c(F)cc(OC)cc3F)n2C)c1 [Example 354, N-(5-(2,6-Difluoro-4-methoxyphenyl)-2-(4-methoxy-6-((1R,4R)-5-methyl-2,5-diazabicyclo[2.2.1]heptan-2-yl)pyridin-2-yl)-1-methyl-3-oxo-2,3-dihydro-1H-pyrazol-4-yl)-4-(difluoromethoxy)benzamide] | > 10000 | 2
COc1ccc(-c2c(NC(=O)c3ccc(OC(F)F)cc3)c(=O)n(-c3ncccc3C(F)(F)F)n2C)cc1F [Example 293, 4-(difluoromethoxy)-N-[5-(3-fluoro-4-methoxyphenyl)-1-methyl-3-oxo-2-[3-(trifluoromethyl)pyridin-2-yl]-2,3-dihydro-1H-pyrazol-4-yl]benzamide] | 1200 | 9
CNC(=O)[C@H](C)Nc1ccc(C(F)(F)F)c(-n2c(=O)c(NC(=O)c3ccc(OC(F)F)cc3)c(-c3c(F)cc(OC)cc3F)n2C)n1 [Example 232, N-[5-(2,6-difluoro-4-methoxyphenyl)-1-methyl-2-(6-{[(1S)-1-(methylcarbamoyl)ethyl]amino}-3-(trifluoromethyl)pyridin-2-yl)-3-oxo-2,3-dihydro-1H-pyrazol-4-yl]-4-(difluoromethoxy)benzamide] | > 10000 | 5
COc1cc(-n2c(=O)c(NC(=O)c3ccc(OC(F)F)cc3)c(-c3c(F)cc(OC)cc3F)n2C)nc(C2(O)CCC2)c1 [Example 100, N-[5-(2,6-difluoro-4-methoxyphenyl)-2-[6-(1-hydroxycyclobutyl)-4-methoxypyridin-2-yl]-1-methyl-3-oxo-2,3-dihydro-1H-pyrazol-4-yl]-4-(difluoromethoxy)benzamide] | 1600 | 2

Results, then the molecule that gave them:

EC50 (human FPR1) [nM] | EC50 (human FPR2) [nM] | SMILES
> 10000 | 1 | COc1cc(F)c(-c2c(NC(=O)c3ccc(OC(F)F)cc3)c(=O)n(-c3nc(NCC4(O)CC4)ccc3C(F)(F)F)n2C)c(F)c1 [Example 283, N-[5-(2,6-difluoro-4-methoxyphenyl)-2-(6-{[(1-hydroxycyclopropyl)methyl]amino}-3-(trifluoromethyl)pyridin-2-yl)-1-methyl-3-oxo-2,3-dihydro-1H-pyrazol-4-yl]-4-(difluoromethoxy)benzamide]
> 10000 | 13 | COc1cc(F)c(-c2c(NC(=O)c3ccc(OC(F)F)cc3)c(=O)n(-c3nc(NCC(N)=O)ccc3C(F)(F)F)n2C)c(F)c1 [Example 226, N-(2-{6-[(carbamoylmethyl)amino]-3-(trifluoromethyl)pyridin-2-yl}-5-(2,6-difluoro-4-methoxyphenyl)-1-methyl-3-oxo-2,3-dihydro-1H-pyrazol-4-yl)-4-(difluoromethoxy)benzamide]
> 10000 | 16 | COc1cc(F)c(-c2c(NC(=O)c3ccc(OC(F)F)cc3)c(=O)n(-c3nc(C(F)(F)F)ccc3OC[C@H](C)O)n2C)c(F)c1 [Example 373, (S)-N-(5-(2,6-Difluoro-4-methoxyphenyl)-2-(3-(2-hydroxypropoxy)-6-(trifluoromethyl)pyridin-2-yl)-1-methyl-3-oxo-2,3-dihydro-1H-pyrazol-4-yl)-4-(difluoromethoxy)benzamide]
2 | 2 | COC(=O)c1cccc(-n2c(=O)c(NC(=O)c3ccc(OC(F)F)cc3)c(-c3c(F)cc(OC)cc3F)n2C)c1 [Example 113, methyl 3-[3-(2,6-difluoro-4-methoxyphenyl)-4-[4-(difluoromethoxy)benzamido]-2-methyl-5-oxo-2,5-dihydro-1H-pyrazol-1-yl]benzoate]
1500 | 7 | [2H]C([2H])([2H])Oc1cc(F)c(-c2c(NC(=O)c3ccc(OC(F)F)cc3)c(=O)n(-c3cccc(C(C)(C)O)n3)n2C)c(F)c1 [Example 404, N-(5-(2,6-difluoro-4-(methoxy-d3)phenyl)-2-(6-(2-hydroxypropan-2-yl)pyridin-2-yl)-1-methyl-3-oxo-2,3-dihydro-1H-pyrazol-4-yl)-4-(difluoromethoxy)benzamide]
> 10000 | 8 | COc1cc(-n2c(=O)c(NC(=O)c3ccc(OC(F)F)cc3)c(-c3c(F)cc(OC)cc3F)n2C)cc(C(F)(F)F)c1 [Example 117, N-[5-(2,6-difluoro-4-methoxyphenyl)-2-[3-methoxy-5-(trifluoromethyl)phenyl]-1-methyl-3-oxo-2,3-dihydro-1H-pyrazol-4-yl]-4-(difluoromethoxy)benzamide]
> 10000 | 5 | COc1cc(F)c(-c2c(NC(=O)c3ccc(OC(F)F)cc3)c(=O)n(-c3nc(Cl)ccc3C(F)(F)F)n2C)c(F)c1 [Example 222, N-{2-[6-chloro-3-(trifluoromethyl)pyridin-2-yl]-5-(2,6-difluoro-4-methoxyphenyl)-1-methyl-3-oxo-2,3-dihydro-1H-pyrazol-4-yl}-4-(difluoromethoxy)benzamide]
> 10000 | 14 | COc1cc(F)c(-c2c(NC(=O)c3ccc(OC(F)F)cc3)c(=O)n(-c3cc(C4CCNCC4)cc(C)n3)n2C)c(F)c1 [Example 323, N-(5-(2,6-Difluoro-4-methoxyphenyl)-1-methyl-2-(6-methyl-4-(piperidin-4-yl)pyridin-2-yl)-3-oxo-2,3-dihydro-1H-pyrazol-4-yl)-4-(difluoromethoxy)benzamide]
1800 | 2 | COc1cc(F)c(-c2c(NC(=O)c3ccc(OC(F)F)cc3)c(=O)n(-c3nc(N4CCC(C)(O)C4)ccc3C(F)(F)F)n2C)c(F)c1 (centres unmarked) [Example 284, N-[5-(2,6-difluoro-4-methoxyphenyl)-2-[6-(3-hydroxy-3-methylpyrrolidin-1-yl)-3-(trifluoromethyl)pyridin-2-yl]-1-methyl-3-oxo-2,3-dihydro-1H-pyrazol-4-yl]-4-(difluoromethoxy)benzamide]

From patent US12577206B2 (BRISTOL-MYERS SQUIBB COMPANY, priority 2020, dated 2026)
